Legend:
[1] = target: CDK9/cyclin T1 (Homo sapiens) (UniProt O60563+P50750); assay: Inhibition of CDK9/cyclin T (unknown origin) using […] at 1 uM incubated for 40 mins in presence of ATP by Kinase-Glo assay relative to control; assay type: protein-complex assay
[2] = target: Cyclin-dependent kinase 2/cyclin A (Homo sapiens) (UniProt P24941+P20248+P78396); assay: Inhibition of CDK2/cyclin A (unknown origin) using […] at 1 uM incubated for 40 mins in presence of ATP by Kinase-Glo assay relative to control; assay type: protein-complex assay
[3] = test system: HCT-116; assay: Cytotoxicity against human HCT-116 cells assessed as cell growth inhibition incubated for 48 hrs by MTT assay; assay type: functional, cell-based; conditions: HCT-116, 48 h
[4] = target: Cyclin-dependent kinase 2/cyclin A (Homo sapiens, UniProt P24941); assay: Inhibition of CDK2/cyclin A (unknown origin) using […] incubated for 40 mins in presence of ATP by Kinase-Glo assay; assay type: protein-complex assay
[5] = Inhibition of CDK9/cyclin T (unknown origin) using […] incubated for 40 mins in presence of ATP by Kinase-Glo assay; set-up: species or system Homo sapiens
[6] = test system: MCF7; assay: Antiproliferative activity against human MCF7 cells assessed as cell growth inhibition incubated for 48 hrs by MTT assay; assay type: functional, cell-based; conditions: MCF7, 48 h
[7] = Antiproliferative activity against HEK293 cells assessed as cell growth inhibition incubated for 48 hrs by MTT assay; assay type: toxicity, cell-based; conditions: human
[8] = Inhibition of CDK1/cyclin B (unknown origin) using […] incubated for 40 mins in presence of ATP by Kinase-Glo assay; set-up: species or system Homo sapiens
[9] = test system: HepG2; assay: Antiproliferative activity against human HepG2 cells assessed as cell growth inhibition incubated for 48 hrs by MTT assay; assay type: functional, cell-based; conditions: HepG2, 48 h
[10] = test system: MV4-11; assay: Antiproliferative activity against human MV4-11 cells assessed as cell growth inhibition incubated for 48 hrs by MTT assay; assay type: functional, cell-based; conditions: MV4-11, 48 h
[11] = test system: U-87 MG; assay: Antiproliferative activity against human U-87 MG cells assessed as cell growth inhibition incubated for 48 hrs by MTT assay; assay type: functional, cell-based, U-87MG ATCC
[12] = test system: A549; assay: Antiproliferative activity against human A549 cells assessed as cell growth inhibition incubated for 48 hrs by MTT assay; assay type: functional, cell-based; conditions: A549, 48 h
[13] = test system: A2780; assay: Antiproliferative activity against human A2780 cells assessed as cell growth inhibition incubated for 48 hrs by MTT assay; assay type: functional, cell-based; conditions: A2780, 48 h
[14] = test system: HeLa; assay: Antiproliferative activity against human HeLa cells assessed as cell growth inhibition incubated for 48 hrs by MTT assay; assay type: functional, cell-based
[15] = test system: HT-29; assay: Antiproliferative activity against human HT-29 cells assessed as cell growth inhibition incubated for 48 hrs by MTT assay; assay type: functional, cell-based; conditions: HT-29, 48 h
[16] = test system: MDA-MB-231; assay: Antiproliferative activity against human MDA-MB-231 cells assessed as cell growth inhibition incubated for 48 hrs by MTT assay; assay type: functional, cell-based; conditions: MDA-MB-231, 48 h
[17] = target: Aurora kinase A (Homo sapiens) (UniProt O14965); assay: Inhibition of Aurora A (unknown origin) at 1 uM relative to control
[18] = target: Glycogen synthase kinase-3 alpha (Homo sapiens) (UniProt P49840); assay: Inhibition of GSK3-alpha (unknown origin) at 1 uM relative to control
[19] = species: Homo sapiens; assay: Inhibition of c-Src (unknown origin) at 1 uM relative to control

Aurora kinase A (Homo sapiens), sequence (O14965 whole entry): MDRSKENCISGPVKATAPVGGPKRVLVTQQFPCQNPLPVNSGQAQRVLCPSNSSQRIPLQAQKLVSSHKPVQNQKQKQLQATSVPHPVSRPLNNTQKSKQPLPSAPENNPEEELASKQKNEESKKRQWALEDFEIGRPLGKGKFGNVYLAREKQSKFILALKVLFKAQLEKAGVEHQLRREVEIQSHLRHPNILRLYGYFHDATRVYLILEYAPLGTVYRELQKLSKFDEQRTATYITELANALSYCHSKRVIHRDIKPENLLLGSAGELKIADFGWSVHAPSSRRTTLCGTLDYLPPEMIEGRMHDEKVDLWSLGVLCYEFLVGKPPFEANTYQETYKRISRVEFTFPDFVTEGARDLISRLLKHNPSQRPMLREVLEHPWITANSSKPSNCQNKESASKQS
Glycogen synthase kinase-3 alpha (Homo sapiens), sequence (P49840 2-483 limits assumed): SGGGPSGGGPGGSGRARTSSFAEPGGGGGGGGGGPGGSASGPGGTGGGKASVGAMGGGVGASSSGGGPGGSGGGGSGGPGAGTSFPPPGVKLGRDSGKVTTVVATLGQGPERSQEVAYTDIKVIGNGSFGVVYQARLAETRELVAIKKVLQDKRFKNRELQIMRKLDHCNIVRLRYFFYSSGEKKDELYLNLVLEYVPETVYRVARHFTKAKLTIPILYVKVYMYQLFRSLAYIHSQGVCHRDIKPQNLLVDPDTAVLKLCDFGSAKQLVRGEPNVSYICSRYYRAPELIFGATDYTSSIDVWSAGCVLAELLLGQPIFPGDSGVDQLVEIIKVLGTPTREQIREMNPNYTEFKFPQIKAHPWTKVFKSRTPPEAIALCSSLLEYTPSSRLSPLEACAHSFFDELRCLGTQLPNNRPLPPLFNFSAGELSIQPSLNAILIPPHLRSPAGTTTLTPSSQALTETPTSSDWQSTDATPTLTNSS

| inhibition [1] | inhibition [2] | IC50 [4] | IC50 [5] | Compound | IC50 [3] | also measured |
| --- | --- | --- | --- | --- | --- | --- |
| 83% | 81% |  |  | CCOC(=O)c1sc(Nc2nc(Nc3ccc(S(N)(=O)=O)cc3)ncc2C)nc1C | > 10000 nM |  |
| 76% | 85% |  |  | Cc1csc(Nc2ccnc(Nc3ccc(S(N)(=O)=O)cc3)n2)n1 | > 10000 nM |  |
|  |  | 11 nM | 294 nM | Cc1cnc(Nc2ccc(S(N)(=O)=O)cc2)nc1Nc1nc(C(C)C)cs1 | 5820 nM |  |
|  |  | 8 nM | 38 nM | CC(C)c1csc(Nc2nc(Nc3ccc(S(N)(=O)=O)cc3)ncc2F)n1 | 3870 nM |  |
| 75% | 72% |  |  | COc1cnc(Nc2ccc(S(N)(=O)=O)cc2)nc1Nc1ncc(C)s1 | 9760 nM |  |
| 84% |  | 53 nM |  | COC(=O)c1sc(Nc2nc(Nc3ccc(S(N)(=O)=O)cc3)ncc2C)nc1C | > 10000 nM |  |
| 63% | 59% |  |  | CC(C)c1ccc(-c2csc(Nc3ccnc(Nc4ccc(S(N)(=O)=O)cc4)n3)n2)cc1 | 6430 nM |  |
|  |  | 10 nM | 51 nM | Cc1csc(Nc2nc(Nc3ccc(S(N)(=O)=O)cc3)ncc2C)n1 | 3210 nM |  |
| 83% | 84% |  |  | Cc1cnc(Nc2ccc(S(N)(=O)=O)cc2)nc1Nc1nc(-c2ccc(C(C)C)cc2)cs1 | 3060 nM |  |
| 31% | 81% |  |  | Cc1cnc(Nc2ccc(S(=O)(=O)NC(C)C)cc2)nc1Nc1nccs1 | > 10000 nM |  |
| 27% | 65% |  |  | CC(C)c1ccc(-c2csc(Nc3nc(Nc4ccc(S(N)(=O)=O)cc4)ncc3F)n2)cc1 | > 10000 nM |  |
|  |  | 112 nM | 11 nM | COc1cnc(Nc2ccc(S(N)(=O)=O)cc2)nc1Nc1nccs1 | > 10000 nM |  |
|  | 78% |  | 2 nM | Cc1cnc(Nc2nc(Nc3ccc(S(N)(=O)=O)cc3)ncc2C)s1 | 692 nM |  |
|  |  | 55 nM | 13 nM | Cc1cnc(Nc2ccc(S(C)(=O)=O)cc2)nc1Nc1nccs1 | 6090 nM |  |
| 79% | 82% |  |  | CCOC(=O)c1cnc(Nc2nc(Nc3ccc(S(N)(=O)=O)cc3)ncc2C)s1 | 4580 nM |  |
| 69% |  | 470 nM |  | CCOC(=O)c1sc(Nc2nc(Nc3ccc(S(N)(=O)=O)cc3)ncc2F)nc1C | 9260 nM |  |
|  |  | 5 nM | 46 nM | Cc1cnc(Nc2ccc(S(N)(=O)=O)cc2)nc1Nc1nc(C2CC2)cs1 | 6600 nM |  |
| 19% | 85% |  |  | CNS(=O)(=O)c1ccc(Nc2ncc(C)c(Nc3nccs3)n2)cc1 | > 10000 nM |  |
| 66% |  | 12 nM |  | Cc1cnc(Nc2nc(Nc3ccc(S(N)(=O)=O)cc3)ncc2F)s1 | 910 nM |  |
| 19% | 44% |  |  | COC(=O)c1sc(Nc2nc(Nc3ccc(S(N)(=O)=O)cc3)ncc2OC)nc1C | > 10000 nM |  |
| 41% |  | 23 nM |  | NS(=O)(=O)c1ccc(Nc2ncc(F)c(Nc3nc(-c4ccc(F)cc4)cs3)n2)cc1 | 5260 nM |  |
|  |  | 10 nM | 217 nM | NS(=O)(=O)c1ccc(Nc2ncc(F)c(Nc3nccs3)n2)cc1 | 4040 nM |  |
|  |  | 32 nM | 89 nM | Cc1cnc(Nc2ccc(S(N)(=O)=O)cc2)nc1Nc1nc(-c2ccc(F)cc2)cs1 | 6050 nM |  |
| 51% |  | 11 nM |  | NS(=O)(=O)c1ccc(Nc2ncc(F)c(Nc3nc(C4CC4)cs3)n2)cc1 | 7850 nM |  |
|  |  | 16 nM | 46 nM | NS(=O)(=O)c1ccc(Nc2nccc(Nc3nc(C4CC4)cs3)n2)cc1 | 3640 nM |  |
| 81% |  | 27 nM |  | CC(C)c1csc(Nc2ccnc(Nc3ccc(S(N)(=O)=O)cc3)n2)n1 | 7350 nM |  |
| 65% |  | 110 nM |  | NS(=O)(=O)c1ccc(Nc2nccc(Nc3nc(-c4ccc(F)cc4)cs3)n2)cc1 | 4400 nM |  |

The next lines start with the compound.

| Compound | inhibition [1] | inhibition [2] | IC50 [4] | IC50 [5] | IC50 [3] | also measured |
| --- | --- | --- | --- | --- | --- | --- |
| Cc1cnc(Nc2ccnc(Nc3ccc(S(N)(=O)=O)cc3)n2)s1 | 29% |  | 5 nM |  | 530 nM |  |
| NS(=O)(=O)c1ccc(Nc2nccc(Nc3ncc([N+](=O)[O-])s3)n2)cc1 |  |  | 38 nM | 14 nM | 8830 nM |  |
| Cc1cnc(Nc2ccc(S(=O)(=O)N3CCOCC3)cc2)nc1Nc1nccs1 | 7% | 79% |  |  | > 10000 nM |  |
| CS(=O)(=O)c1ccc(Nc2nccc(Nc3nccs3)n2)cc1 |  |  | 110 nM | 470 nM | 9510 nM |  |
| CCOC(=O)c1cnc(Nc2nc(Nc3ccc(S(N)(=O)=O)cc3)ncc2OC)s1 | 32% | 36% |  |  | > 10000 nM |  |
| CCOC(=O)CNc1ccnc(Nc2ccc(OC)cc2)n1 |  |  | 4090 nM | 26100 nM | > 10000 nM | IC50 [6]: > 30000 nM; IC50 at 48 h [7]: 126000 nM; IC50 [8]: > 30000 nM; IC50 [9]: > 30000 nM; IC50 [10]: 28100 nM; IC50 [11]: > 30000 nM; IC50 [12]: > 30000 nM; IC50 [13]: > 30000 nM; IC50 [14]: 29300 nM; IC50 [15]: > 30000 nM; IC50 [16]: 32600 nM |
| COc1cc(Nc2nccc(Nc3nccs3)n2)cc(OC)c1OC | 49% | 30% |  |  | > 10000 nM |  |
| c1ccc(Nc2nccc(Nc3nccs3)n2)cc1 | 18% | 61% |  |  | > 10000 nM |  |
| Brc1ccc(Nc2nccc(Nc3nccs3)n2)cc1 | 15% | 17% |  |  | 6840 nM |  |
| COCCNS(=O)(=O)c1ccc(Nc2ncc(C)c(Nc3nccs3)n2)cc1 | 46% |  | 43 nM |  | 7420 nM |  |
| COc1ccc(Nc2nccc(Nc3ncco3)n2)cc1 | 21% | 60% |  |  | > 10000 nM |  |
| Cc1ncc(-c2ccnc(Nc3ccc(S(C)(=O)=O)cc3)n2)n1C(C)C [AZD-5438] |  |  |  | 18 nM | 477 nM | inhibition [17]: > 50%; IC50 at 48 h [7]: 18000 nM; inhibition [18]: > 50%; IC50 [9]: 12400 nM; IC50 [10]: 2080 nM; inhibition [19]: > 50%; IC50 [11]: > 30000 nM; IC50 [12]: 1470 nM; IC50 [13]: 1260 nM; IC50 [15]: 1160 nM; IC50 [16]: 151 nM |
| COC(=O)c1sc(Nc2ccnc(Nc3ccc(S(N)(=O)=O)cc3)n2)nc1C | 31% | 67% |  |  | 8720 nM |  |
| Cc1cnc(Nc2ccc(S(=O)(=O)N3CCCCC3)cc2)nc1Nc1nccs1 | 4% |  | 26 nM |  | 3050 nM |  |
| Fc1ccc(Nc2nccc(Nc3nccs3)n2)cc1 | 6% | 9% |  |  | > 10000 nM |  |
| CCOC(=O)c1cnc(Nc2nc(Nc3ccc(S(N)(=O)=O)cc3)ncc2F)s1 | 40% | 79% |  |  | 7500 nM |  |
| COc1ccc(Nc2nccc(Nc3nccs3)n2)cc1 |  |  | 910 nM | 1840 nM | 2230 nM |  |
| Cc1cnc(Nc2ccc(S(=O)(=O)NC3CC3)cc2)nc1Nc1nccs1 | 62% | 76% |  |  | 9620 nM |  |
| COc1ccc(Nc2nccc(Nc3cc[nH]n3)n2)cc1 | 29% | 47% |  |  | > 10000 nM |  |
| NS(=O)(=O)c1ccc(Nc2nccc(Nc3nccs3)n2)cc1 |  |  | 52 nM | 124 nM | 1380 nM |  |
